From US12391686B2, “Compounds and uses thereof” (Foghorn Therapeutics Inc., priority 2019, dated 2025)

Assays:
[1] = target: T1, Nanoluciferase-BRD9 fusion protein (3×FLAG-NLuc-BRD9) in SYO-1 cells (Homo sapiens, UniProt Q9H8M2); assay: SYO1 BRD9 NanoLuc Degradation Assay; format: cell-based; conditions: 6 hours; SYO-1 cells expressing 3×FLAG-NLuc-BRD9; top dose 1 μM; read-out: SYO1 BRD9-NanoLuc degradation IC50
T1 construct: expressed in transfected cells; host or cells: SYO-1
T1 sequence (Q9H8M2 1-597): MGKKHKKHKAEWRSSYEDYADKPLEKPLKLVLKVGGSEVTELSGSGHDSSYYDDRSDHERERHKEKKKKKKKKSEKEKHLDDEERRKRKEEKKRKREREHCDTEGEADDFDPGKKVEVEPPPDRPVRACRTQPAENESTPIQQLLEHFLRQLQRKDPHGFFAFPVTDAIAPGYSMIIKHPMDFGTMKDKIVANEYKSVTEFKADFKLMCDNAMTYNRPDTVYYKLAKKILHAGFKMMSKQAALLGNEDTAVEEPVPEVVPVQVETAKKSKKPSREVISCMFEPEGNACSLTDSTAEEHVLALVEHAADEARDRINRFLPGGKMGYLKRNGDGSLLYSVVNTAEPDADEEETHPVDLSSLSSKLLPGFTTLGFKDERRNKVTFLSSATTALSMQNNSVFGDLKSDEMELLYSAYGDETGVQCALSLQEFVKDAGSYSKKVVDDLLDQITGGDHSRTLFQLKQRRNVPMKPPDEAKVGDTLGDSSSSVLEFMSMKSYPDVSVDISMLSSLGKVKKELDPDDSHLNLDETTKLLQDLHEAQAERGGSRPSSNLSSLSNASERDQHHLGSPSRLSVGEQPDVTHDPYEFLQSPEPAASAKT
Method in brief: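 Stable 3×FLAG-NLuc-BRD9 SYO-1 line, 8000 cells/well, dosed day 1 with 10-point 3-fold dilutions (1 μM final top, duplicates) for 6 h. NanoLuc bioluminescence read with Nano-Glo; % inhibition relative to DMSO (high) and 1 μM reference BRD9 degrader (low) controls.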

[2] = target: T2, BRD9 bromodomain (Flag-BRD9 P133-K239; Swiss Prot Q9H8M2) (Homo sapiens, UniProt Q9H8M2); assay: BRD9 Bromodomain TR-FRET Competition Binding Assay; conditions: competition with biotinylated BRD9 ligand; 90 minutes at room temperature
T2 construct: His-Flag-BRD9 (P133-K239); Swiss Prot Q9H8M2; His6 with TEV site (mgsshhhhhhenlyfq/) (N, cleaved yes); made in house
T2 sequence (Q9H8M2 133-239): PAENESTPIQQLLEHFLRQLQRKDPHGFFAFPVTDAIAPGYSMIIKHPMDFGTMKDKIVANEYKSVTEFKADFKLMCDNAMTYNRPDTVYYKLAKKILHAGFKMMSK
Method: Procedure: His-Flag-BRD9 (P133-K239; Swiss Prot Q9H8M2; SEQ ID NO:1 mgsshhhhhhenlyfq/gdykddddkgslevlfqg/[…] […]) was cloned, expressed, purified, and then treated with TEV protease. Cleaved His tag was removed by purification. The binding of a biotinylated small molecule ligand of BRD9 was assessed via the LANCE® TR-FRET platform (PerkinElmer), and the compounds were assayed for inhibitory activity against this interaction.
Results: A mixture of biotinylated-ligand and SureLight™ Allophycocyanin-Streptavidin (APC-SA, PerkinElmer AD0201) in 50 mM HEPES (pH 7.4), 50 mM NaCl, 1 mM TCEP (pH 7), 0.01% (v/v) Tween-20, 0.01% (w/v) bovine serum albumin was added to a white 384-well PerkinElmer Proxiplate Plus plate. DMSO or 3-fold serially diluted compounds were then added to the Proxiplate followed by addition of Flag-BRD9. After a 10-minute incubation at room temperature, Eu-W1024 anti-FLAG (PerkinElmer, AD0273) was added. The final reaction mixture that contained 3.75 nM biotinylated ligand, 3 nM Flag-BRD9, 7.5 nM SureLight™ Allophycocyanin-Streptavidin, and 0.2 nM Eu-W1024 anti-FLAG was incubated at room temperature for 90 minutes.
The plates were then read on a PerkinElmer Envision plate reader to determine the ratio of emission at 665 nm over 615 nm. […]

| Compound | DC50 [1] | IC50 [2] |
| --- | --- | --- |
| COc1cc(-c2cn(C)c(=O)c3cc(NCC(=O)NCCCCCOc4cccc5c4C(=O)N(C4CCC(=O)NC4=O)C5=O)ncc23)cc(OC)c1CN(C)C (stereo not shown) [Compound D26, 2-[(8-[4-[(dimethylamino)methyl]-3,5-dimethoxyphenyl]-6-methyl-5-oxo-2,6-naphthyridin-3-yl)amino]-N-(5-[[2-(2,6-dioxopiperidin-3-yl)-1,3-dioxoisoindol-4-yl]oxy]pentyl) acetamide] | ≥ 0.01 µM | ≥ 0.01 µM |
| CNc1cc2c(=O)n(C)cc(-c3cc(OC)c(CN4CCN(C(=O)COc5cccc6c5C(=O)N(C5CCC(=O)NC5=O)C6=O)CC4)c(OC)c3)c2cn1 (stereo not shown) [Compound D29, 4-[2-[4-([2,6-dimethoxy-4-[2-methyl-7-(methylamino)-1-oxo-2,6-naphthyridin-4-yl]phenyl]methyl)piperazin-1-yl]-2-oxoethoxy]-2-(2,6-dioxopiperidin-3-yl)isoindole-1,3-dione] | < 0.01 µM | < 0.01 µM |
| CNc1cc2c(=O)n(C)cc(-c3cc(OC)c(CN4CCC5(CC4)CN(C(=O)CCCOc4cccc6c4C(=O)N(C4CCC(=O)NC4=O)C6=O)CCO5)c(OC)c3)c2cn1 (stereo not shown) [Compound D16, 4-(4-(9-(2,6-dimethoxy-4-(2-methyl-7-(methylamino)-1-oxo-1,2-dihydro-2,6-naphthyridin-4-yl)benzyl)-1-oxa-4,9-diazaspiro[5.5]undecan-4-yl)-4-oxobutoxy)-2-(2,6-dioxopiperidin-3-yl)isoindoline-1,3-dione formic acid] | < 0.01 µM | < 0.01 µM |
| COc1cc(-c2cn(C)c(=O)c3cnc(N(C)C)cc23)cc(OC)c1CN(C)CCOCCN1CCN(c2ccc3c(c2)C(=O)N(C2CCC(=O)NC2=O)C3=O)CC1 (stereo not shown) [Compound D21, 5-[4-(2-[2-[([4-[6-(dimethylamino)-2-methyl-1-oxo-2,7-naphthyridin-4-yl]-2,6-dimethoxyphenyl]methyl)(methyl)amino]ethoxy]ethyl)piperazin-1-yl]-2-(2,6-dioxopiperidin-3-yl)isoindole-1,3-dione] | < 0.01 µM | < 0.01 µM |
| COc1cc(-c2cn(C)c(=O)c3cnc(N(C)C)cc23)cc(OC)c1CN1CC(S(=O)(=O)NCCN2CCN(c3ccc4c(c3)C(=O)N(C3CCC(=O)NC3=O)C4=O)CC2)C1 (stereo not shown) [Compound D28, 1-([4-[6-(dimethylamino)-2-methyl-1-oxo-2,7-naphthyridin-4-yl]-2,6-dimethoxyphenyl]methyl)-N-(2-[4-[2-(2,6-dioxopiperidin-3-yl)-1,3-dioxoisoindol-5-yl]piperazin-1-yl]ethyl)azetidine-3-sulfonamide] | < 0.01 µM | < 0.01 µM |
| COc1cc(-c2cn(C)c(=O)c3cnc(N(C)C)cc23)cc(OC)c1CN1CC(N(C)Cc2cccc3c2C(=O)N(C2CCC(=O)NC2=O)C3=O)C1 (stereo not shown) [Compound D3, 4-([[1-([4-[6-(dimethylamino)-2-methyl-1-oxo-2,7-naphthyridin-4-yl]-2,6-dimethoxyphenyl]methyl)azetidin-3-yl](methyl)amino]methyl)-2-(2,6-dioxopiperidin-3-yl)isoindole-1,3-dione formic acid] | ≥ 0.01 µM | < 0.01 µM |
| COc1cc(-c2cn(C)c(=O)c3cnc(N(C)C)cc23)cc(OC)c1CN1CC(C(=O)NCCCCCOc2cccc3c2C(=O)N(C2CCC(=O)NC2=O)C3=O)C1 (stereo not shown) [Compound D1, 1-([4-[6-(dimethylamino)-2-methyl-1-oxo-1,2-dihydro-2,7-naphthyridin-4-yl]-2,6-dimethoxyphenyl]methyl)-N-(5-[[2-(2,6-dioxopiperidin-3-yl)-1,3-dioxo-2,3-dihydro-1H-isoindol-4-yl]oxy]pentyl)azetidine-3-carboxamide] | < 0.01 µM | < 0.01 µM |
| COc1cc(-c2cn(C)c(=O)c3cnc(NCCCCCOc4cccc5c4C(=O)N(C4CCC(=O)NC4=O)C5=O)cc23)c(OC)cc1CN(C)C (stereo not shown) [Compound D6, 4-((5-((5-(4-((dimethylamino)methyl)-2,5-dimethoxyphenyl)-7-methyl-8-oxo-7,8-dihydro-2,7-naphthyridin-3-yl)amino)pentyl)oxy)-2-(2,6-dioxopiperidin-3-yl)isoindoline-1,3-dione formic acid] | ≥ 0.01 µM | ≥ 0.01 µM |
| COc1cc(-c2cn(C)c(=O)c3cnc(NC(=O)CCOCCOCCNc4ccc5c(c4)C(=O)N(C4CCC(=O)NC4=O)C5=O)cc23)cc(OC)c1CN(C)C (stereo not shown) [Compound D14, N-(5-(4-((dimethylamino)methyl)-3,5-dimethoxyphenyl)-7-methyl-8-oxo-7,8-dihydro-2,7-naphthyridin-3-yl)-3-(2-(2-((2-(2,6-dioxopiperidin-3-yl)-1,3-dioxoisoindolin-5-yl)amino)ethoxy)ethoxy)propanamide formic acid] | ≥ 0.1 µM | ≥ 0.01 µM |
| COc1cc(-c2cn(C)c(=O)c3cc(NCCOCCOCCNc4cccc5c4C(=O)N(C4CCC(=O)NC4=O)C5=O)ncc23)cc(OC)c1CN(C)C (stereo not shown) [Compound D24, 4-[[2-(2-[2-[(8-[4-[(dimethylamino)methyl]-3,5-dimethoxyphenyl]-6-methyl-5-oxo-2,6-naphthyridin-3-yl)amino]ethoxy]ethoxy)ethyl]amino]-2-(2,6-dioxopiperidin-3-yl)isoindole-1,3-dione] | ≥ 0.01 µM | ≥ 0.01 µM |
| CNc1cc2c(=O)n(C)cc(-c3cc(OC)c(CN4CCC(CCN5CCN(c6ccc7c(c6)C(=O)N(C6CCC(=O)NC6=O)C7=O)CC5)CC4)c(OC)c3)c2cn1 (stereo not shown) [Compound D30, 5-(4-[2-[1-([2,6-dimethoxy-4-[2-methyl-7-(methylamino)-1-oxo-2,6-naphthyridin-4-yl]phenyl]methyl)piperidin-4-yl]ethyl]piperazin-1-yl)-2-(2,6-dioxopiperidin-3-yl)isoindole-1,3-dione formic acid] | < 0.01 µM | < 0.01 µM |
| COc1cc(-c2cn(C)c(=O)c3cnc(NC(=O)CCOCCOCCNc4cccc5c4C(=O)N(C4CCC(=O)NC4=O)C5=O)cc23)cc(OC)c1CN(C)C (stereo not shown) [Compound D11, N-(5-(4-((dimethylamino)methyl)-3,5-dimethoxyphenyl)-7-methyl-8-oxo-7,8-dihydro-2,7-naphthyridin-3-yl)-3-(2-(2-((2-(2,6-dioxopiperidin-3-yl)-1,3-dioxoisoindolin-4-yl)amino)ethoxy)ethoxy)propanamide formic acid] | ≥ 0.1 µM | ≥ 0.01 µM |
| COc1cc(-c2cn(C)c(=O)c3cc(NCCCCCCCCNC(=O)COc4cccc5c4C(=O)N(C4CCC(=O)NC4=O)C5=O)ncc23)cc(OC)c1CN(C)C (stereo not shown) [Compound D8, N-[8-[(8-[4-[(dimethylamino)methyl]-3,5-dimethoxyphenyl]-6-methyl-5-oxo-2,6-naphthyridin-3-yl)amino]octyl]-2-[[2-(2,6-dioxopiperidin-3-yl)-1,3-dioxoisoindol-4-yl]oxy]acetamide] | ≥ 0.01 µM | ≥ 0.01 µM |
| COc1cc(-c2cn(C)c(=O)c3cnc(N(C)C)cc23)cc(OC)c1CN1CC[C@H]1C(=O)N(C)Cc1cccc2c1C(=O)N(C1CCC(=O)NC1=O)C2=O (stereo partly drawn) [Compound D4, (2S)-1-(4-(6-(dimethylamino)-2-methyl-1-oxo-1,2-dihydro-2,7-naphthyridin-4-yl)-2,6-dimethoxybenzyl)-N-((2-(2,6-dioxopiperidin-3-yl)-1,3-dioxoisoindolin-4-yl)methyl)-N-methylazetidine-2-carboxamide formic acid] | ≥ 0.1 µM | < 0.01 µM |
